In PubChem BioAssay AID1963854 (Molecular Pharmacology Branch, DTP, NCI, 2024):
Several values for one entry are separate records, joined by “and”; a condition that tells them apart may be missing. Equal values may be shown once.

Test system: 186277-243-T-J2-PDC complex spheroid viability
Experiment: Anticancer human tumor 186277-243-T-J2-PDC patient-derived colon adenocarcinoma cell line growth inhibition [POLQ]
Conditions: for viability, T/C: stronger effect = lower value; active means viability on the fitted dose curve at most 10% of control; inactive means the rest
Method: Multicellular complex tumor spheroid response to Polymerase (POL) inhibitors (novobiocin, ART-558, RP6685) in combination with a variety of drugs and investigational agents in selected tumor cell lines
The POL inhibitors (novobiocin, ART-558, and RP6685) were evaluated both individually and in combination with standard of care and investigational anticancer small molecules within a complex spheroid model of solid tumors. . Complex spheroids include a stromal component modeled by human endothelial cells (HUVEC) and fibroblasts modeled by human mesenchymal stem cells (MSCs). The concentration ranges selected for each drug and investigational agent were based upon clinically achievable concentrations if the clinical Cmax of the agent was known.
Compounds. The drugs and investigational agents: novobiocin (NSC847541), ART-558 (NSC835418), RP-6685 (NSC848927), peposertib (NSC802822), ceralasertib (NSC780249), elimusertib (NSC800525), camonsertib (NSC841442), AZD-1390 (NSC803789), olaparib (NSC753686), talazoparib (NSC767125), rucaparib (NSC756644), sotorasib (NSC818433), MRTX-1133 (NSC836407), SN-38 (NSC673596), topotecan (NSC609699), epotoside (NSC141540), doxorubicin (NSC123127), gemcitabine (NSC613327), 5-fluorouracil (NSC19893), paclitaxel (NSC125973), vemurafenib (NSC761431), MSA-2 (NSC828583), SN-011 (NSC837082), adavosertib (NSC754352), prexasertib (NSC758257), carboplatin (NSC241240) and oxaliplatin (NSC266046), were obtained from the National Cancer Institute (NCI) Developmental Therapeutics Program Chemical Repository (21). The FDA-approved anticancer drug set is available from the Developmental Therapeutics Program at https://dtp.cancer.gov/organization/dscb/obtaining/. […] The stock solutions were prepared in dimethyl sulfoxide (DMSO, Sigma-Aldrich, St. Louis, MO, cat. D2650), except for the platinum compounds which were prepared in saline (Quality Biological, Gaithersburg, MD, cat. 114-055-101), at 800-fold the tested concentration and stored at -70 degrees C prior to their use. All drugs and investigational agents were tested over a range starting from a high concentration at or near the clinical Cmax and decreasing in half-log increments. If the clinical Cmax for an agent had not been determined, the highest concentration tested was 10 microM, except for SN-38, which was tested at a high concentration of 1 microM.
Cell Culture. All cells were maintained in an incubator at 37 degrees C and 5% CO2 with 95% humidity. The PDC lines were cultured according to standard operating procedures established by the NCI PDMR (https://pdmr.cancer.gov). Table 3 of the manuscript, lists the cell lines along with the number of the three cell types plated to form the mct-spheroids and media for tumor cell growth. After thawing, all PDC lines, except 997537-175-T-J1-PDC and 415267-285-R-J2-PDC, were cultured in Matrigel-coated flasks prepared with a working solution of 1X Ham's F-12 nutrient mix, without supplementation (Thermo Fisher Scientific, cat. 11765054), 100 U/mL penicillin-streptomycin (Thermo Fisher Scientific, cat. 15140122), and 2.5% Matrigel (Corning Inc., Corning, NY, cat. 354248) for the first three passages. The two PDC lines 997537-175-T-J1-PDC and 415267-285-R-J2-PDC were cultured on uncoated flasks. The 857933-349-R-J2-PDC line was cultured in 6C/Colon 1B media containing advanced DMEM/F-12 (Thermo Fisher Scientific, cat. 12634028), 10 mM HEPES (Thermo Fisher Scientific, cat. 15630080), 1X GlutaMAX supplement (Thermo Fisher Scientific, cat. 35050061), 0.1 mg/mL primocin (InvivoGen, San Diego, CA, cat. ant-pm-2), 10% defined fetal bovine serum, heat inactivated (HyClone Laboratories Inc., Logan, UT, cat. SH30070.03HI), 50% L-WRN conditioned media (ATCC, cat. CRL-3276), 1.25 mM N-Acetyl-L-cysteine (Sigma-Aldrich, cat. A9165), 10 mM nicotinamide (Sigma-Aldrich, cat. N0636), 1X B-27 supplement (Thermo Fisher Scientific, cat. 17504044), 1X N-2 supplement (Thermo Fisher Scientific, cat. […]
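Further: spheroids exposed to compounds for seven days.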

COc1ccc([C@@H](O)c2cc(-c3ncnc4cc(N5CCOCC5)ccc34)c(F)cc2Cl)nn1 + Cc1cccc(N(C)C(=O)C2C(O)CCN2c2nc(C)cc(C(F)(F)F)c2C#N)c1
6.39 µM: IC50 (curve of first compound, second compound 1 µM)
5.56 µM: IC50 (curve of first compound, second compound 0.1 µM)
5.81 µM: IC50 (curve of first compound, second compound 3.16 µM)
6.17 µM: IC50 (curve of first compound, second compound 10 µM)
5.9 µM: IC50 (curve of first compound, second compound 0.0316 µM)
6.69 µM: IC50 (curve of first compound, second compound 0.316 µM)
inactive: viability, T/C (second compound 0.0316 µM, first compound 0.0316 µM) 102% | viability, T/C (second compound 0.0316 µM, first compound 0.1 µM) 105% | viability, T/C (second compound 0.0316 µM, first compound 0.316 µM) 94.9% | viability, T/C (second compound 0.0316 µM, first compound 1 µM) 110% | viability, T/C (second compound 0.0316 µM, first compound 3.16 µM) 74.3% | viability, T/C (second compound 0.0316 µM, first compound 10 µM) 29.4% | viability, T/C (second compound 0.1 µM, first compound 0.0316 µM) 101% | viability, T/C (second compound 0.1 µM, first compound 0.1 µM) 112% | viability, T/C (second compound 0.1 µM, first compound 0.316 µM) 109% | viability, T/C (second compound 0.1 µM, first compound 1 µM) 97.9% | viability, T/C (second compound 0.1 µM, first compound 3.16 µM) 71.3% | viability, T/C (second compound 0.1 µM, first compound 10 µM) 28.1% | viability, T/C (second compound 0.316 µM, first compound 0.0316 µM) 90.4% | viability, T/C (second compound 0.316 µM, first compound 0.1 µM) 105% | viability, T/C (second compound 0.316 µM, first compound 0.316 µM) 101% | viability, T/C (second compound 0.316 µM, first compound 1 µM) 104% | viability, T/C (second compound 0.316 µM, first compound 3.16 µM) 86.2% | viability, T/C (second compound 0.316 µM, first compound 10 µM) 30.4% | viability, T/C (second compound 1 µM, first compound 0.0316 µM) 100% | viability, T/C (second compound 1 µM, first compound 0.1 µM) 107% | viability, T/C (second compound 1 µM, first compound 0.316 µM) 97% | viability, T/C (second compound 1 µM, first compound 1 µM) 98.1% | viability, T/C (second compound 1 µM, first compound 3.16 µM) 81% | viability, T/C (second compound 1 µM, first compound 10 µM) 30% | viability, T/C (second compound 3.16 µM, first compound 0.0316 µM) 107% | viability, T/C (second compound 3.16 µM, first compound 0.1 µM) 114% | viability, T/C (second compound 3.16 µM, first compound 0.316 µM) 109% | viability, T/C (second compound 3.16 µM, first compound 1 µM) 99.4% | viability, T/C (second compound 3.16 µM, first compound 3.16 µM) 76.9% | viability, T/C (second compound 3.16 µM, first compound 10 µM) 26.2% | viability, T/C (second compound 10 µM, first compound 0.0316 µM) 101% | viability, T/C (second compound 10 µM, first compound 0.1 µM) 102% | viability, T/C (second compound 10 µM, first compound 0.316 µM) 125% | viability, T/C (second compound 10 µM, first compound 1 µM) 109% | viability, T/C (second compound 10 µM, first compound 3.16 µM) 84.3% | viability, T/C (second compound 10 µM, first compound 10 µM) 25.1%

COc1cccc2c1C(=O)c1c(O)c3c(c(O)c1C2=O)CC(O)(C(=O)CO)CC3OC1CC(N)C(O)C(C)O1 (centres undefined)
inactive: viability, T/C (compound 0.0316 µM) 109% and 154% and 91.8% | viability, T/C (compound 0.1 µM) 56.6% and 106% and 42.8%
0.118 µM and 0.25 µM and 0.0845 µM: IC50 (curve of compound)
active: viability, T/C (compound 1 µM) 0.64% and 1.27% and 0.32% | viability, T/C (compound 3.16 µM) 0.26% and 1.06% and 0.23% | viability, T/C (compound 10 µM) 0.49% and 1.07% and 0.37%

O=c1[nH]cc(F)c(=O)[nH]1
inactive: viability, T/C (compound 0.0316 µM) 88.9% and 104% and 92.7% | viability, T/C (compound 0.1 µM) 89.7% and 103% and 117% | viability, T/C (compound 0.316 µM) 97.9% and 120% and 108% | viability, T/C (compound 1 µM) 98% and 95% and 112% | viability, T/C (compound 3.16 µM) 77% and 103% and 69.6% | viability, T/C (compound 10 µM) 48.4% and 63.8% and 49.9%
9.37 µM and > 10 µM: IC50 (curve of compound)

CC1COCCN1c1cc(C2(O)CC3CCC(C2)O3)c2cnn(-c3ccn[nH]3)c2n1 (centres undefined)
0.0419 µM and 0.0414 µM and 0.0672 µM: IC50 (curve of compound)
inactive: viability, T/C (compound 0.0316 µM) 62.7% and 62.5% and 102%
active: viability, T/C (compound 0.316 µM) 5.2% and 4.15% and 9.01% | viability, T/C (compound 1 µM) 4.03% and 3.64% and 7.13% | viability, T/C (compound 3.16 µM) 4.12% and 3.11% and 9.4% | viability, T/C (compound 10 µM) 4.18% and 3.19% and 7.62%
11% and 9.46% and 22.4%: viability, T/C (compound 0.1 µM)

C=CC(=O)N1CCN(c2nc(=O)n(-c3c(C)ccnc3C(C)C)c3nc(-c4c(O)cccc4F)c(F)cc23)C(C)C1 (centres undefined)
inactive: viability, T/C (compound 0.0316 µM) 99.7% and 104% and 101% | viability, T/C (compound 0.1 µM) 93.3% and 94.9% and 105% | viability, T/C (compound 0.316 µM) 97.6% and 89.5% and 103% | viability, T/C (compound 1 µM) 96.6% and 85.6% and 99% | viability, T/C (compound 3.16 µM) 101% and 104% and 109% | viability, T/C (compound 10 µM) 103% and 95% and 93.3%
> 10 µM: IC50 (curve of compound)
